The inhibition is the relative decrease from the control value, in per cent. A word on the melting point: it is the temperature, or range, at which the solid turns liquid.

Experimental findings from patent US8022091B2, “Triazole derivative” (Taisho Pharmaceutical Co., Ltd., priority 2006, dated 2011) are described below.

The target in data set [1] is T1, human Edg-1 (S1P1) (Homo sapiens, UniProt P21453).
T1 construct: expressed in transfected cells; host or cells: HEK-293
In words: S1P1 binding assay: inhibition of [33P]-S1P binding to membrane fraction of HEK-293 cells transferred with the human Edg-1 (S1P1) gene. The conditions noted are these: for IC50: [33P]-S1P 0.1 nM, human Edg-1 (S1P1) HEK-293 membrane fraction, 1 h at 30° C., read-out: IC50 (concentration at which binding in the absence of the test compound was inhibited by 50%); for inhibition at 10 µM: test compound at 10 μM, inhibition of [33P]-S1P binding to the membrane fraction of HEK-293 cells expressing human Edg-1 (S1P1). The method in brief: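 With 0.1 nM [33P]-S1P and compound (10^−5M single point, or a concentration range for IC50) in 0.1% DMSO, membrane fractions from human Edg-1-expressing HEK-293 cells were treated for one hour at 30° C in 20 mM Tris-HCl pH 7.4 with NaF, deoxypyridoxine and BSA. Bound label was measured after filtration, with untransfected-cell background subtracted.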

T1 sequence (P21453 whole entry): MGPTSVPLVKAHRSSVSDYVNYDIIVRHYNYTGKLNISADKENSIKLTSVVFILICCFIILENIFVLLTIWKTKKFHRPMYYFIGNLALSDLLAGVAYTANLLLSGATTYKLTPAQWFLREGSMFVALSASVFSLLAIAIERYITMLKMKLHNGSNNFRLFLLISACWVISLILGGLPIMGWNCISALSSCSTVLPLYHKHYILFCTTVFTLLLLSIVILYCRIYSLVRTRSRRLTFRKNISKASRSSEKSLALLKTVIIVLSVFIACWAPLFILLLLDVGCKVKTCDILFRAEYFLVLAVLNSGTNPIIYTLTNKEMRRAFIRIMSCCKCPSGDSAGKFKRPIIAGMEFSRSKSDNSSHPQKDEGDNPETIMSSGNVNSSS

Turning to `CCn1c(Oc2cccc(N3C[C@@H](C)O[C@@H](C)C3)c2)nnc1[C@@H](C)NS(=O)(=O)c1ccc(Cl)c(Cl)c1` [Compound 76], the melting point was in the range of 151.5 to 153.5 °C. In addition, in data set [1], the IC50 is at most 0.035 µM and the inhibition at 10 µM amounted to 99.2%.

Regarding `CCn1c(Oc2cccc(C3CCN(C(C)C)CC3)c2)nnc1[C@@H](C)NS(=O)(=O)c1ccc(Cl)c(Cl)c1` [Compound 108], the melting point was 175 to 180 °C. For the same compound, in data set [1], the IC50 was found to be 0.018 µM and the inhibition at 10 µM is 101%.

With `CCn1c(Oc2cccc(N3CCN(C)CC3)c2)nnc1[C@@H](C)NS(=O)(=O)c1ccc(C(F)(F)F)cc1` [Compound 142], the melting point lay in the range of 183 to 184 °C. In data set [1], the IC50 was at most 0.035 µM and the inhibition at 10 µM worked out at 98.1%.

In turn, `CCn1c(Oc2ccc3cc[nH]c3c2)nnc1[C@@H](C)NS(=O)(=O)c1ccc(C)c(C)c1` [Compound 129] came in with a melting point of 96 to 104 °C. Also, in data set [1], the IC50 was determined as 0.02 µM and the inhibition at 10 µM was 96.8%.

In turn, `CCn1c(Oc2cccc(N3CCN(C(C)C)CC3)c2)nnc1[C@@H](C)NS(=O)(=O)c1ccc(Cl)c(Cl)c1` [Compound 94] yielded a melting point of 190 to 192 °C. Moreover, in data set [1], the IC50 was at most 0.01 µM and the inhibition at 10 µM was 106%.

Take `CCn1c(Oc2ccc(OCCN(C)C)cc2)nnc1[C@@H](C)NS(=O)(=O)c1ccc(Cl)c(Cl)c1` [Compound 35]: the melting point was in the range of 156 to 159 °C. Moreover, in data set [1], the IC50 was at most 0.035 µM and the inhibition at 10 µM was found to be 100%.

Turning to `CCOc1ccc2c(Oc3nnc([C@@H](C)NS(=O)(=O)c4ccc(Cl)c(Cl)c4)n3CC)csc2c1` [Compound 117], the melting point is 153.5 to 155.5 °C. The inhibition at 10 µM in data set [1] amounted to 87.1%.
